According to patent publication US7550469B2, “Heterocyclic amide derivatives and their use as dopamine D3 receptor ligands” (Aventis Pharmaceuticals Inc., priority 2001, dated 2009):

Target: T1, cloned human dopamine D3 receptors (Homo sapiens, UniProt P35462)
T1 construct: expressed in transfected cells; membrane homogenate
Experiment: [N-Methyl-3H]Spiroperidol binding to cloned human dopamine D3 receptors (Protocol 1)
Settings: the 13th table, unit inferred; read-out: D3Ki
Text: [N-Methyl-^3H]Spiroperidol Binding to Cloned Human Dopamine D3 Receptors
This assay measures the in vitro activity of compounds on cloned human dopamine (D3) receptors and predicts the direct dopamine-blocking properties of putative neuropsychiatric agents at human dopamine D3 receptors.
The D3 gene was isolated from a human striatal cDNA library (Stratagene). The gene was sequenced and sub-cloned into the expression vector RC/RSV (Invitrogen). CHO (Chinese Hamster Ovary) cells were stably transfected with 10 μg of the D3/RSV plasmid using the DOTAP method from Boehringer Mannheim and 72 clones that were G418 resistant were isolated. Using mRNA and binding displacement data a single high expressing clone was identified. This clone was then grown in large batches for the purpose of developing a 96 well format assay.
• 1. One plate (10 cm) with approximately 2-3 million D3 cells per plate is incubated with 1 ml of Trypsin-EDTA at room temperature for ˜2 min or until cells have lifted off plates. Four ml of Ham's F12+10% Fetal Bovine Serum+1% Penicillin/Streptomycin+G418 (400 μg/ml) medium are added to resuspend cells and 1 ml of this is added to each large plate (15 cm) containing 19 ml of the-same medium as mentioned above. • 2. The 5 large plates are incubated at 37° C.+5% CO2 for ˜3 days or until the cells are confluent. • 3. After these plates are confluent, they are split into 10 large plates. Medium is aspirated off, 2 ml of Trypsin-EDTA are added to each plate and plates are incubated at RT for 2 min or until cells have lifted off the plate. Eight ml of the F12 medium (same medium as #1 above) are added to each plate (10 ml total) to resuspend the cells and 5 ml are transferred to the 2 new plates containing 15 ml of the F12 media. • 4. The 10 large plates are incubated at 37° C.+5% CO2 for ˜2 days or until the cells are confluent. • 5. The 10 large plates are split into 60 large plates (using Trypsin-EDTA as #3 except 4 ml of F12 medium are added to resuspend cells and 1 ml is aliquoted to 6 new plates containing 19 ml of F12 medium each). • 6. Plates are incubated at […]+5% CO2 for ˜3 days or until cell are confluent. • 7. The 60 large plates are then split into 60 roller bottles (100-150 million cells/bottle). Medium is aspirated off, 2 ml of Trypsin-EDTA are added to each plate and incubated at RT for ˜2 minutes or until cells have lifted off plates. Eight ml of F12 medium are added to each plate to resuspend cells and the entire 10 ml are added to 1 roller bottle containing 90 ml of the F12 medium. • 8. The 60 roller bottles are immediately placed on their sides and transferred to the roller bottle incubator. They are incubated at 37° C.+5% CO2 for ˜3-5 days. Cells are spun at 30-40% motor speed in the Forma incubator. • 9. Medium is poured off and cells are washed 2× in PBS. • 10. Cells are then scraped off in 20 ml of PBS and the bottles are rinsed again with 5 ml of PBS to remove any remaining cells. Cells are stored on ice before membrane preparation. • 11. The yield for 60 D3 roller bottles has varied from ˜260-500 mg. • Note: All tissue culture reagents are from Gibco-BRL. C. Membrane Preparation
The cells are harvested into 250 ml centrifuge tubes with 100 volumes of cold phosphate buffered saline (PBS) and spun down (1200×G for 10 min at 4° C.). The medium is removed and 100 ml PBS are added to each centrifuge tube, cells are resuspend and spun down again. The PBS is removed and the final pellet is homogenized in an appropriate volume of 10% DMSO with a polytron on ice at a medium setting.
1. 0.5M Tris Buffer, pH 7.7 • a) 44.4 g Tris HCl 26.5 g Tris Base q.s. to 1 Liter (0.5 M Tris buffer, pH 7.7 at 37° C.) • b) make a 1:10 dilution in distilled H2O (0.05 M. Tris buffer, pH 7.7) 2. Tris Buffer Containing Physiological Salts • a) Stock buffer • NaCl 7.014 g • KCl 0.372 g • CaCl2 0.222 g • MgCl2 0.204 g • q.s. To 100 ml with 0.5 M. Tris Buffer • b) Dilute 1:10 in distilled H2O […]

T1 sequence (P35462 whole entry): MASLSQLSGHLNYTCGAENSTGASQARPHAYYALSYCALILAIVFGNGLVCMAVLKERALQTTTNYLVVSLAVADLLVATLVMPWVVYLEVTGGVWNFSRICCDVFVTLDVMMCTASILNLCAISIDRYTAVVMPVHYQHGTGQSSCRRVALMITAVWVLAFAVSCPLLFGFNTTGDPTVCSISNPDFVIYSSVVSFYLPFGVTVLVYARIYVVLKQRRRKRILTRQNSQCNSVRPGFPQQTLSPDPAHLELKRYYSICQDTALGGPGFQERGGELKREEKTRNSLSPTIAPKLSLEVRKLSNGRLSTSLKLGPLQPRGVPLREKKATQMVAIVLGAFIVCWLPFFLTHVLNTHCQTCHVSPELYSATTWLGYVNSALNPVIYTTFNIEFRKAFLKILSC

Row | Ki [µM] | SMILES
1 | 0.00082 | O=C(NCCCCN1CCCN(c2csc3cc(F)ccc23)CC1)c1cc2ccccc2o1 [822226G]
2 | 0.00178 | Cn1c(C(=O)NCCCCN2CCCN(c3csc4cc(F)ccc34)CC2)cc2ccccc21 [822228G]
3 | 0.0203 | O=C(NCCCCN1CCCN(c2csc3cc(C(F)(F)F)ccc23)CC1)c1ccc(-c2ccccc2F)cc1 [S908665]
4 | 0.00185 | O=C(NCCCCN1CCCN(c2csc3cc(F)ccc23)CC1)c1cc2ccccc2[nH]1 [S977818]
5 | 0.00321 | O=C(NCCCCN1CCCN(c2csc3cc(F)ccc23)CC1)c1cc2ccccc2o1 [S977819]
6 | 0.00105 | COc1ccc2[nH]c(C(=O)NCCCCN3CCCN(c4csc5cc(F)ccc45)CC3)cc2c1 [S977820]
7 | 0.00165 | Cn1c(C(=O)NCCCCN2CCCN(c3csc4cc(F)ccc34)CC2)cc2ccccc21 [S977821]
8 | 0.00412 | O=C(NCCCCN1CCCN(c2csc3cc(F)ccc23)CC1)c1c[nH]c2ccccc12 [S977822]
9 | 0.00396 | O=C(NCCCCN1CCCN(c2csc3cc(F)ccc23)CC1)c1cccc2[nH]ccc12 [S977823]
10 | 0.00114 | O=C(NCCCCN1CCCN(c2csc3cc(F)ccc23)CC1)c1ccc2[nH]ccc2c1 [S977824]
11 | 0.000882 | O=C(NCCCCN1CCCN(c2csc3cc(F)ccc23)CC1)c1ccc2cc[nH]c2c1 [S977825]
12 | 0.000987 | CC1=C(C(=O)NCCCCN2CCCN(c3csc4cc(F)ccc34)CC2)Cc2ccccc21 [S977827]
13 | 0.00697 | Cn1cccc1C(=O)NCCCCN1CCCN(c2csc3cc(F)ccc23)CC1 [S977828]
14 | 0.00418 | O=C(NCCCCN1CCCN(c2csc3cc(F)ccc23)CC1)c1ccsc1 [S977829]
15 | 0.0058 | O=C(NCCCCN1CCCN(c2csc3cc(F)ccc23)CC1)c1c[nH]cn1 [S977830]
16 | 0.00187 | O=C(NCCCCN1CCCN(c2csc3cc(F)ccc23)CC1)c1ccc2[nH]cnc2c1 [S977831]
17 | 0.04 | O=C(NCCCCN1CCCN(c2csc3cc(C(F)(F)F)ccc23)CC1)c1cccs1 [S980627]

Row | Ki [µM] | SMILES
18 | 0.11 | O=C(NCCCCN1CCCN(c2csc3cc(C(F)(F)F)ccc23)CC1)c1cccc(Cl)c1 [S980628]
19 | 0.1 | O=C(NCCCCN1CCCN(c2csc3cc(C(F)(F)F)ccc23)CC1)c1cccc2ccccc12 [S980631]
20 | 0.023 | O=C(NCCCCN1CCCN(c2csc3cc(C(F)(F)F)ccc23)CC1)c1ccc2ccccc2c1 [S980632]
21 | 0.23 | O=C(NCCCCN1CCCN(c2csc3cc(C(F)(F)F)ccc23)CC1)c1cccc(C(F)(F)F)c1 [S980633]
22 | 0.014 | COc1ccccc1C(=O)NCCCCN1CCCN(c2csc3cc(C(F)(F)F)ccc23)CC1 [S980634]
23 | 0.071 | O=C(NCCCCN1CCCN(c2csc3cc(C(F)(F)F)ccc23)CC1)c1cccc(F)c1 [S980635]
24 | 0.018 | O=C(NCCCCN1CCCN(c2csc3cc(C(F)(F)F)ccc23)CC1)c1cc2ccccc2s1 [S980636]
25 | 0.043 | O=C(NCCCCN1CCCN(c2csc3cc(C(F)(F)F)ccc23)CC1)c1ccc(F)cc1 [S980637]
26 | 0.039 | COc1ccc(C(=O)NCCCCN2CCCN(c3csc4cc(C(F)(F)F)ccc34)CC2)cc1OC [S980638]
27 | 0.04 | Cc1ccccc1C(=O)NCCCCN1CCCN(c2csc3cc(C(F)(F)F)ccc23)CC1 [S980639]
28 | 0.043 | COc1cccc(C(=O)NCCCCN2CCCN(c3csc4cc(C(F)(F)F)ccc34)CC2)c1 [S980640]
29 | 0.029 | O=C(NCCCCN1CCCN(c2csc3cc(C(F)(F)F)ccc23)CC1)c1ccc(-c2ccccc2)cc1 [S980641]
30 | 0.069 | CC(C)(C)c1ccc(C(=O)NCCCCN2CCCN(c3csc4cc(C(F)(F)F)ccc34)CC2)cc1 [S980642]
31 | 0.096 | O=C(NCCCCN1CCCN(c2csc3cc(C(F)(F)F)ccc23)CC1)c1cnc2ccccc2n1 [S980643]
32 | 0.57 | O=C(NCCCCN1CCCN(c2csc3cc(C(F)(F)F)ccc23)CC1)c1ccc(C(F)(F)F)cc1 [S980644]
33 | 0.044 | O=C(NCCCCN1CCCN(c2csc3cc(C(F)(F)F)ccc23)CC1)c1ccncc1 [S980645]
34 | 0.11 | O=C(NCCCCN1CCCN(c2csc3cc(C(F)(F)F)ccc23)CC1)c1cccnc1Cl [S980646]
